Legend:
[1] = tested on: NCI-H1975 cells EGFR L858R/T790M; test: NCI-H1975 cell viability assay (Cell Titer-Glo, 6 days); assay type: cell-based; settings: Homo sapiens, 144 h
Protocol: (§1) RPMI1640, fetal bovine serum, penicillin/streptomycin solution were purchased from Life Technology (Madison, Wis.). Cell Titer-Glo luminescent cell viability reagents were purchased from Promega (Madison, Wis.). A431 cell line and NCI-H1975 cell line were purchased from European Collection of Cell Cultures (ECACC). Plate Reader Instrument: Envision (PerkinElmer).
(§2) 384-Well plates, 300 of A431 cells and NCI-H1975 cells were inoculated per well, a volume of which was 45 μL. And the plates were incubated overnight in a CO2 incubator at 37° C. The test compound was diluted 3-fold to obtain 10 dose concentrations, the final concentrations of which were from 10 μM to 0.508 nM, two wells. The middle plates were filled with 49 μL of medium per well. 1 μL of compound in the gradient dilution compound plates was transferred to the middle plates and mixed well. And then 5 μL liquid in the middle plates was taken to the cell plates. The cells were incubated in a CO2 incubator for 6 days. After 6 days, 25 μL of detection reagents was added. And then the mixture was incubated at room temperature for 10 minutes and the plates were read by Envision.
(§3) The reading is converted to the suppression rate by the following formula (%) (Max-Sample)/(Max-Min)*100%. IC50 Data was measured by Four-parameter curve fitting (Model 205 in XLFIT5, IDBS).

[2] = molecular target: T1, EGFR d746-750/T790M (Homo sapiens, UniProt P00533, DEL746-750/T790M); test: EGFR d746-750/T790M enzyme HTRF inhibition assay; assay type: biochemical; settings: 40 μM ATP
T1 construct: purchased Carna Biosciences (Japan)
T1 sequence (P00533 with tags, fused parts or gaps DEL746-750/T790M limits assumed): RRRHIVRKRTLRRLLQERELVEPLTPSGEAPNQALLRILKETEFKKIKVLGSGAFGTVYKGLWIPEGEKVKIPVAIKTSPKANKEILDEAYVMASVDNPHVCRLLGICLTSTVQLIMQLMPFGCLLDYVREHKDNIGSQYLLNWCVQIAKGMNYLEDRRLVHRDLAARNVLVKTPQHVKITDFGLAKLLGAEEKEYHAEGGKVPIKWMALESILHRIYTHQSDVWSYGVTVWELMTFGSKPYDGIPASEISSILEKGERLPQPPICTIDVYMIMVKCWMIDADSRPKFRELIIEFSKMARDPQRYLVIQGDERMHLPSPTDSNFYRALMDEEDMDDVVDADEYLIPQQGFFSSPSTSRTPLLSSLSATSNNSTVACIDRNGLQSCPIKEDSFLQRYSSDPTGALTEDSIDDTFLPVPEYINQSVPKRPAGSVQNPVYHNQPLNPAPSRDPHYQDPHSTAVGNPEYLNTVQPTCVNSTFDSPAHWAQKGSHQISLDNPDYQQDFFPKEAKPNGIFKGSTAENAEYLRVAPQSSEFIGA
Protocol: (§4) Enzyme: EGFR wild type, EGFR T790M/L858R, EGFR T790M and INSR were purchased from Life technology (Madison, Wis.), EGFR d746-750/T790M was purchased from Carna Biosciences (Japan).
(§5) HTRF Kit was purchased from Cis-Bio International which contained the Eu-labeled TK1 antibody, XL665 and biotin-labeled TK1 polypeptide substrates.
(§6) Detecting instrument: Envision (PerkinElmer).
(§7) The test compound was diluted 3-fold to obtain 10 doses of which the final concentration was from 300 nM to 0.015 nM.
EGFR d746-750/T790M Enzyme Reaction Mixture System:
0.025 nM EGFR d746-750/T790M, 1 μM biotin-TK1 peptide, 40 μM ATP enzyme buffer, a total of which was 10 μL. The reaction plate was white Proxiplate 384-Plus plate (PerkinElmer) and the mixture was reacted at 23° C. for 60 minutes.
(§8) Reaction Detection: 10 μL of detection reagent containing Antibody 2 nM and XL665 62.5 nM was added, and the reagent was incubated at 23° C. for 60 minutes. The plates were read by Envision.
(§9) The reading is converted to the suppression rate (%) by the following formula […]/(Max-Min)*100%. IC50 Data was measured by four-parameter curve fitting (Model 205 in XLFITS, IDBS).

[3] = molecular target: T2, EGFR T790M/L858R (Homo sapiens, UniProt P00533, L858R/T790M); test: EGFR T790M/L858R enzyme HTRF inhibition assay; assay type: biochemical; settings: 20 μM ATP, read-out: EGFR L858R/T79M IC50
T2 construct: purchased Life technology (Madison, Wis.)
T2 sequence (P00533 25-1210 T790M/L858R): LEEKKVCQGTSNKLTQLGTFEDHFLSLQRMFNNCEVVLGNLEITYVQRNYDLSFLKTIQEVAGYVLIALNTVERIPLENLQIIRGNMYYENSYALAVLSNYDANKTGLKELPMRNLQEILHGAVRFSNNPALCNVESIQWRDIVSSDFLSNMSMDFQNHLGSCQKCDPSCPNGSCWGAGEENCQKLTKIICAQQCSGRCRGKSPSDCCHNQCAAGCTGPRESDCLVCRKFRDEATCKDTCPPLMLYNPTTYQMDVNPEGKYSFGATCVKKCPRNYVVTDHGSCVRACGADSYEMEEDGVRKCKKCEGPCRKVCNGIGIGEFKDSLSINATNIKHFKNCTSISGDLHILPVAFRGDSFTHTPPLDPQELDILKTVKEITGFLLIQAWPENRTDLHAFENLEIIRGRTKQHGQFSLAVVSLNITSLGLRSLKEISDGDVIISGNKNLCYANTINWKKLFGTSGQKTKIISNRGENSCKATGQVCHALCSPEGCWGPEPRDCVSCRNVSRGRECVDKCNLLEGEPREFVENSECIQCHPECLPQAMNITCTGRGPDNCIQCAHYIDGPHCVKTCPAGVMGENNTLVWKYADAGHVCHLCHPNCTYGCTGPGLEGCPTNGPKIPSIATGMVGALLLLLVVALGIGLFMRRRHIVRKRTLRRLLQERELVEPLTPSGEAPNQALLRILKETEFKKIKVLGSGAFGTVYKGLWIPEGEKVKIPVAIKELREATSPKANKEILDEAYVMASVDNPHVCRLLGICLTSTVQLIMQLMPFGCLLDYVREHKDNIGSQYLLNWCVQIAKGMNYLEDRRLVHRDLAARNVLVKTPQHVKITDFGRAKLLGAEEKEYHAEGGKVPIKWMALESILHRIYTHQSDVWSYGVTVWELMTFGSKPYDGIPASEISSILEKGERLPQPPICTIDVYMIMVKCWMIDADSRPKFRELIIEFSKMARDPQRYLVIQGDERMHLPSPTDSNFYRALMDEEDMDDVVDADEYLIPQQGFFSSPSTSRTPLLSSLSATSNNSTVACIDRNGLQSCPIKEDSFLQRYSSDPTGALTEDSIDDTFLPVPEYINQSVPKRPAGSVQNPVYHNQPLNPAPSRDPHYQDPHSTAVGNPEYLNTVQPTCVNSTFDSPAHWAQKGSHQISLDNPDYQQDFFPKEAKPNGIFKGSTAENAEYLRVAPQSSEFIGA
Protocol: as §4, §5, §6, §7
EGFR T790M/L858R Enzyme Reaction Mixture System:
0.04 nM EGFR T790M/L858R, 1 μM biotin-TK1 peptide, 20 μM ATP enzyme buffer, a total of which was 10 μL. The reaction plate was white Proxiplate 384-Plus plate (PerkinElmer) and the mixture was reacted at 23° C. for 60 minutes.
as §8, §9

[4] = tested on: A431 cells EGFR WT; test: A431 cell viability assay (Cell Titer-Glo, 6 days); assay type: cell-based, human; settings: for IC50: Homo sapiens, A-431, 144 h, A431 cells, 6 days; for A431:NCI-H1975 (ratio): ratio of cell IC50 A431 to NCI-H1975
Protocol: as §1, §2, §3

[5] = molecular target: T3, EGFR wild type (Homo sapiens, UniProt P00533); test: Wild-type EGFR enzyme HTRF inhibition assay; assay type: biochemical; settings: 25 μM ATP, read-out: EGFR WT IC50
T3 construct: purchased Life technology (Madison, Wis.)
T3 sequence (P00533 25-1210): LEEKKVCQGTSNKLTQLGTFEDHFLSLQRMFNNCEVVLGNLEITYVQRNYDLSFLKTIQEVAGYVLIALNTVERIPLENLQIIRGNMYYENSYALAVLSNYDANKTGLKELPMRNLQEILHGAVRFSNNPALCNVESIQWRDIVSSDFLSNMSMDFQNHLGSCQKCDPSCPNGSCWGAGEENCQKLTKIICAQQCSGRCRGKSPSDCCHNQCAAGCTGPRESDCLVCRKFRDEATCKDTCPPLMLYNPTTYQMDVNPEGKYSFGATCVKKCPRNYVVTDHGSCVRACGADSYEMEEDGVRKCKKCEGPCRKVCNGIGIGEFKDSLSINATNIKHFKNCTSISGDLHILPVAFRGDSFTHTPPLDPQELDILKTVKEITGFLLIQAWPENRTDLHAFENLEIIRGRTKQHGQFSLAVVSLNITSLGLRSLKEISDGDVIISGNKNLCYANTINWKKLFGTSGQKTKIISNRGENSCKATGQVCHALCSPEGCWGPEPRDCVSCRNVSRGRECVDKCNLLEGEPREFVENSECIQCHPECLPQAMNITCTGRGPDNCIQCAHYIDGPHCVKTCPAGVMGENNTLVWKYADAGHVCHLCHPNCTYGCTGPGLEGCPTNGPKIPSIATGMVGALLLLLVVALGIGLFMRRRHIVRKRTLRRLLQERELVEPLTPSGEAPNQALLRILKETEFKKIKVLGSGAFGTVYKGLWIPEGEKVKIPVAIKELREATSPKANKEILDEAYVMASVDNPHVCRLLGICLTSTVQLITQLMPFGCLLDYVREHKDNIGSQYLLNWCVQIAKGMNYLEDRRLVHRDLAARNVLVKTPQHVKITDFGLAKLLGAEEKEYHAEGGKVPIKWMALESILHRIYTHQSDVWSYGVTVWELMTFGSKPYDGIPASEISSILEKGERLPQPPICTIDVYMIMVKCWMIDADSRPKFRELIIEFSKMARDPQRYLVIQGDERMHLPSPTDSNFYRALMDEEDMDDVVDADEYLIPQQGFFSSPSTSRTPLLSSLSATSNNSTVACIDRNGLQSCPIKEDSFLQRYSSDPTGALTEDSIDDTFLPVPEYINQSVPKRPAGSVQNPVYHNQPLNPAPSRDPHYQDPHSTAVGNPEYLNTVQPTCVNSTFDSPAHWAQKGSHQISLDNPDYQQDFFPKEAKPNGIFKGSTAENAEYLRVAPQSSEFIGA
Protocol: as §4, §5, §6, §7
Wild-Type EGFR Enzyme Reaction Mixture System:
0.05 nM Wild-type EGFR, 1 μM biotin-TK1 peptide, 25 μM ATP enzyme buffer, a total of which was 10 μL. The reaction plate was white Proxiplate 384-Plus plate (PerkinElmer) and the mixture was reacted at 23° C. for 60 minutes.
as §8, §9

| SMILES | IC50 [1] | IC50 [2] | IC50 [3] | IC50 [4] | A431:NCI-H1975 (ratio) [4] | IC50 [5] |
| --- | --- | --- | --- | --- | --- | --- |
| C=CC(=O)Nc1cc(Nc2nccc(-c3cn4c5c(cccc35)OCC(C)(C)C4)n2)c(OC)cc1N(C)CCN(C)C [Embodiment 41, N-(5-((4-(3,3-Dimethyl-3,4-dihydro-2H-[1,4]oxazepino[2,3,4-hi]indol-7-yl)pyrimidin-2-yl)amino)-2-((2-(dimethylamino)ethyl)(methyl)amino)-4-methoxyphenyl)acrylamide] | 201 nM | 2.6 nM | 1.5 nM | 1720 nM | 8.5 | 4.9 nM |
| C=CC(=O)Nc1cc(Nc2nccc(-c3c4n(c5ccc(F)cc35)CCC4)n2)c(OC)cc1N(C)CCN(C)C [Embodiment 13, N-(2-((2-(Dimethylamino)ethyl)(methyl)amino)-5-((4-(7-fluoro-2,3-dihydro-1H-pyrrolo[1,2-a]indol-9-yl)pyrimidin-2-yl)amino)-4-methoxyphenyl) acrylamide] | 5.4 nM | 0.18 nM | 0.24 nM | 545 nM | 101.0 | 0.65 nM |
| C=CC(=O)Nc1cc(Nc2ncc(F)c(-c3c4n(c5ccccc35)C(C)(C)COC4)n2)c(OC)cc1N(C)CCN(C)C.CS(=O)(=O)O [Embodiment 36, N-(5-((4-(4,4-Dimethyl-3,4-dihydro-1H-[1,4]oxazino[4,3-a]indol-10-yl)-5-fluoropyrimidin-2-yl)amino)-2-((2-(dimethylamino)ethyl)(methyl)amino)-4-methoxyphenyl)acrylamide methanesulfonate] | 175 nM | 1.3 nM | 1.3 nM | 438 nM | 2.5 | 2.7 nM |
| C=CC(=O)Nc1cc(Nc2ncc(F)c(-c3c4n(c5ccccc35)CCOC4)n2)c(OC)cc1N(C)CC(C)(C)N(C)C [Embodiment 32, N-(5-((4-(3,4-Dihydro-1H-[1,4]oxazino[4,3-a]indol-10-yl)-5-fluoropyrimidin-2-yl)amino)-2-((2-(dimethylamino)-2-methylpropyl)(methyl)amino)-4-methoxyphenyl)acrylamide] | 3 nM | 0.2 nM | 0.1 nM | 597 nM | 199 | 0.3 nM |
| C=CC(=O)Nc1cc(Nc2nccc(-c3c4n(c5ccccc35)CCOC4)n2)c(OC)cc1N(C)C(C)CN(C)C (stereo not drawn) [Embodiment 20, N-(5-((4-(3,4-Dihydro-1H-[1,4]oxazino[4,3-a]indol-10-yl)pyrimidin-2-yl)amino)-2-((1-(dimethylamino)propan-2-yl)(methyl)amino)-4-methoxyphenyl)acrylamide] | 4 nM | 0.17 nM | 0.2 nM | 164 nM | 41.0 | 0.66 nM |
| C=CC(=O)Nc1cc(Nc2nccc(-c3c4n(c5ccccc35)CCC4)n2)c(OC)cc1N(C)CCCN(C)C [Embodiment 7, N-(5-((4-(2,3-Dihydro-1H-pyrrolo[1,2-a]indol-9-yl)pyrimidin-2-yl)amino)-2-((3-(dimethylamino)propyl)(methyl)amino)-4-methoxyphenyl)acrylamide] | 496 nM | 2.59 nM | 2.19 nM | 3720 nM | 7.5 | 33 nM |
| C=CC(=O)Nc1cc(Nc2nccc(-c3c4n(c5ccccc35)CCC4)n2)c(OC)cc1N1CCN(C)CC1 [Embodiment 4, 2-(2-Methoxy-4-(N-methyl)piperazine-5-acrylamidoanilino)-4-(3-(1,2,3-dihydropyrrolo[1,2-a]indol))pyrimidine] | 434 nM | 2.7 nM | 3.25 nM | 4620 nM | 10.6 | 60 nM |
| C=CC(=O)Nc1cc(Nc2nccc(-c3c4n(c5ccccc35)CCC4)n2)c(OC)cc1N1CC(N(C)C)C1 [Embodiment 2, N-(5-((4-(2,3-Dihydro-1H-pyrrolo[1,2-a]indol-9-yl)pyrimidin-2-yl)amino)-2-(3-(dimethylamino)azetidin-1-yl)-4-methoxyphenyl)acrylamide] | 4740 nM | 0.67 nM | 0.55 nM | > 10000 nM | >2.1 | 4.31 nM |
| C=CC(=O)Nc1cc(Nc2ncc(F)c(-c3c4n(c5c(OC)cccc35)CCOC4)n2)c(OC)cc1N(C)CCN(C)C [Embodiment 35, N-(2-((2-(Dimethylamino)ethyl)(methyl)amino)-5-((5-fluoro-4-(6-methoxy-3,4-dihydro-1H-[1,4]oxazino[4,3-a]indol-10-yl)pyrimidin-2-yl)amino)-4-methoxyphenyl)acrylamide] | 107 nM | 0.6 nM | 1.2 nM | 971 nM | 9.1 | 1.5 nM |
| C=CC(=O)Nc1cc(Nc2ncc(F)c(-c3c4n(c5ccccc35)CCOC4)n2)c(OC)cc1N(C)CCNC [Embodiment 31, N-(5-((4-(3,4-Dihydro-1H-[1,4]oxazino[4,3-a]indol-10-yl)-5-fluoropyrimidin-2-yl)amino)-4-methoxy-2-(methyl(2-(methylamino)ethyl)amino)phenyl)acrylamide] | 96 nM | 0.3 nM | 0.2 nM | 1290 nM | 13.4 | 2 nM |
| C=CC(=O)Nc1cc(Nc2nccc(-c3c4n(c5ccccc35)CCOC4)n2)c(OC(C)C)cc1N(C)CCN(C)C [Embodiment 29, N-(5-((4-(3,4-Dihydro-1H-[1,4]oxazino[4,3-a]indol-10-yl)pyrimidin-2-yl)amino)-2-((2-(dimethylamino)ethyl)(methyl)amino)-4-isopropoxyphenyl)acrylamide] | 25 nM | 0.38 nM | 0.38 nM | 1180 nM | 47 | 5.1 nM |
| C=CC(=O)Nc1cc(Nc2nccc(-c3c4n(c5ccccc35)CCOC4)n2)c(OCC)cc1N(C)CCN(C)C [Embodiment 28, N-(5-((4-(3,4-Dihydro-1H-[1,4]oxazino[4,3-a]indol-10-yl)pyrimidin-2-yl)amino)-2-((2-(dimethylamino)ethyl)(methyl)amino)-4-ethoxyphenyl)acrylamide] | 11 nM | 0.2 nM | 0.2 nM | 517 nM | 47 | 1.5 nM |
| C=CC(=O)Nc1cc(Nc2nccc(-c3c4n(c5ccccc35)CCC4)n2)c(OC)cc1N(C)C(C)CN(C)C (stereo not drawn) [Embodiment 11, N-(5-((4-(2,3-Dihydro-1H-pyrrolo[1,2-a]indol-9-yl)pyrimidin-2-yl)amino)-2-((1-(dimethylamino)propan-2-yl)(methyl)amino)-4-methoxyphenyl)acrylamide] | 6.1 nM | 0.2 nM | 0.23 nM | 270 nM | 44.3 | 0.53 nM |
